The results in this text go back to ChEMBL document CHEMBL5726656, “N-(phenylsulfonyl)benzamides and related compounds as BCL-2 inhibitors” (2019).

The assay concerns the target Apoptosis regulator Bcl-2 (Homo sapiens, UniProt P10415). Description: FP values were measured as described above.

Sequence of Apoptosis regulator Bcl-2 (P10415 whole entry): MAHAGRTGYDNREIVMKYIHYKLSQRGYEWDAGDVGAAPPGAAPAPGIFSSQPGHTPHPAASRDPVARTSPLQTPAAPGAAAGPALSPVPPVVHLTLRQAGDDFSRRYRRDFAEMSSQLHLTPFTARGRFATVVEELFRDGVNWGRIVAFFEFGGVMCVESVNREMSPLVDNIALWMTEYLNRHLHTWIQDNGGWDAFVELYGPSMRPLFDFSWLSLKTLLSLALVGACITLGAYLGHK

In turn, `O=C(NS(=O)(=O)c1cc([N+](=O)[O-])c2cnn(CC3CCOCC3)c2c1)c1ccc(N2CCN(CC3=C(c4ccc(Cl)cc4)CC4(CCC4)CC3)CC2)cc1Oc1cnc2[nH]ccc2c1` registered an IC50 of 1.6 nM.

As a reminder, the IC50 is the concentration needed to halve the response being measured. Read a high IC50 as weaker potency in that assay.
